Results as given in ChEMBL document CHEMBL1129920, “Cyclic homopentapeptides 2. Synthetic modifications of viomycin” (1997).
Converted amounts (≈) assume the structure as drawn.

Columns and labels:
Type in all cases: functional
Escherichia coli = assay: In vitro inhibition of Escherichia coli growth.
Pasteurella multocida = assay: In vitro inhibition of Pasteurella multocida growth.
Staphylococcus aureus = assay: In vitro inhibition of MRSA growth.

MIC (Escherichia coli) [µg/mL] | MIC (Pasteurella multocida) [µg/mL] | MIC (Staphylococcus aureus) [µg/mL] | SMILES
50 (≈ 61.1 µM) | 25 (≈ 30.5 µM) | – | NCCC[C@H](N)CC(=O)NC1CNC(=O)[C@@H](C2CC(NC(=O)OCc3ccccc3)N=C(N)N2)NC(=O)/C(=C/NC(N)=O)NC(=O)[C@@H](CO)NC(=O)[C@@H](CO)NC1=O (some centres undefined)
200 (≈ 257 µM) | 200 (≈ 257 µM) | – | NCCC[C@H](N)CC(=O)NC1CNC(=O)[C@@H](C2CC(c3ccc(O)c(O)c3)N=C(N)N2)NC(=O)/C(=C/NC(N)=O)NC(=O)[C@@H](CO)NC(=O)[C@@H](CO)NC1=O (some centres undefined)
200 (≈ 238 µM) | 200 (≈ 238 µM) | – | Cc1ccc(S(=O)(=O)NC2CC([C@H]3NC(=O)/C(=C/NC(N)=O)NC(=O)[C@@H](CO)NC(=O)[C@@H](CO)NC(=O)C(NC(=O)C[C@@H](N)CCCN)CNC3=O)N=C(N)N2)cc1 (some centres undefined)
6.25 (≈ 6.62 µM) | 6.25 (≈ 6.62 µM) | 12.5 (≈ 13.2 µM) | NCCC[C@H](N)CC(=O)NC1CNC(=O)[C@@H](C2CC(NC(=O)OCc3cccc(I)c3)N=C(N)N2)NC(=O)/C(=C/NC(N)=O)NC(=O)[C@@H](CO)NC(=O)[C@@H](CO)NC1=O (some centres undefined)
200 (≈ 292 µM) | 200 (≈ 292 µM) | – | NCCC[C@H](N)CC(=O)NC1CNC(=O)[C@@H](C2CC(O)N=C(N)N2)NC(=O)/C(=C/NC(N)=O)NC(=O)[C@@H](CO)NC(=O)[C@@H](CO)NC1=O (some centres undefined)
3.13 (≈ 3.03 µM) | 6.25 (≈ 6.05 µM) | 12.5 (≈ 12.1 µM) | NCCC[C@H](N)CC(=O)NC1CNC(=O)[C@@H](C2CC(NC(=O)OCc3ccc(Cl)cc3Cl)N=C(N)N2)NC(=O)/C(=C/NC(=O)Nc2ccc(Cl)c(Cl)c2)NC(=O)[C@@H](CO)NC(=O)[C@@H](CO)NC1=O (some centres undefined)
50 (≈ 51.2 µM) | 6.25 (≈ 6.4 µM) | – | CC(=O)N(C1CC([C@H]2NC(=O)/C(=C/NC(=O)Nc3ccc(Cl)c(Cl)c3)NC(=O)[C@@H](CO)NC(=O)[C@@H](CO)NC(=O)C(NC(=O)C[C@@H](N)CCCN)CNC2=O)N=C(N)N1)[C@H](CS)C(=O)O (some centres undefined)
12.5 (≈ 14.3 µM) | 3.13 (≈ 3.59 µM) | – | NCCC[C@H](N)CC(=O)NC1CNC(=O)[C@@H](C2CC(NC(=O)OCc3ccc(Cl)cc3F)N=C(N)N2)NC(=O)/C(=C/NC(N)=O)NC(=O)[C@@H](CO)NC(=O)[C@@H](CO)NC1=O (some centres undefined)

Further lines, the molecule ahead of its results:

SMILES | MIC (Escherichia coli) [µg/mL] | MIC (Pasteurella multocida) [µg/mL] | MIC (Staphylococcus aureus) [µg/mL]
CC(C)(C)c1ccc(COC(=O)NC2CC([C@H]3NC(=O)/C(=C/NC(N)=O)NC(=O)[C@@H](CO)NC(=O)[C@@H](CO)NC(=O)C(NC(=O)C[C@@H](N)CCCN)CNC3=O)N=C(N)N2)cc1 (some centres undefined) | 25 (≈ 28.6 µM) | 12.5 (≈ 14.3 µM) | –
NCCC[C@H](N)CC(=O)NC1CNC(=O)[C@@H](C2CC(NC(=O)OCc3ccc(I)cc3)N=C(N)N2)NC(=O)/C(=C/NC(N)=O)NC(=O)[C@@H](CO)NC(=O)[C@@H](CO)NC1=O (some centres undefined) | 12.5 (≈ 13.2 µM) | 3.13 (≈ 3.31 µM) | 12.5 (≈ 13.2 µM)
COc1ccc(C2CC([C@H]3NC(=O)/C(=C/NC(N)=O)NC(=O)[C@@H](CO)NC(=O)[C@@H](CO)NC(=O)C(NC(=O)C[C@@H](N)CCCN)CNC3=O)N=C(N)N2)cc1OC (some centres undefined) | > 200 | > 200 | –
NCCC[C@H](N)CC(=O)NC1CNC(=O)[C@@H](C2CC(NC(=O)Nc3ccc(Cl)c(Cl)c3)N=C(N)N2)NC(=O)/C(=C/NC(=O)Nc2ccc(Cl)c(Cl)c2)NC(=O)[C@@H](CO)NC(=O)[C@@H](CO)NC1=O (some centres undefined) | 6.25 (≈ 6.14 µM) | 6.25 (≈ 6.14 µM) | 25 (≈ 24.6 µM)
NCCC[C@H](N)CC(=O)NC1CNC(=O)[C@@H](C2CC(O)N=C(N)N2)NC(=O)/C(=C/NC(=O)Nc2ccc(Cl)c(Cl)c2)NC(=O)[C@@H](CO)NC(=O)[C@@H](CO)NC1=O (some centres undefined) | 50 (≈ 60.2 µM) | 3.12 (≈ 3.76 µM) | –
NCCC[C@H](N)CC(=O)NC1CNC(=O)[C@@H](C2CC(NC(=O)NCc3cccc(C4CCCCC4)c3)N=C(N)N2)NC(=O)/C(=C/NC(N)=O)NC(=O)[C@@H](CO)NC(=O)[C@@H](CO)NC1=O (some centres undefined) | – | – | 12.5 (≈ 13.9 µM)
NCCC[C@H](N)CC(=O)NC1CNC(=O)[C@@H](C2CC(c3ccc(O)c(O)c3)N=C(N)N2)NC(=O)/C(=C/NC(=O)Nc2ccc(Cl)c(Cl)c2)NC(=O)[C@@H](CO)NC(=O)[C@@H](CO)NC1=O (some centres undefined) | 12.5 (≈ 13.5 µM) | 12.5 (≈ 13.5 µM) | –
COc1ccc(C2CC([C@H]3NC(=O)/C(=C/NC(=O)Nc4ccc(Cl)c(Cl)c4)NC(=O)[C@@H](CO)NC(=O)[C@@H](CO)NC(=O)C(NC(=O)C[C@@H](N)CCCN)CNC3=O)N=C(N)N2)cc1OC (some centres undefined) | 12.5 (≈ 13.1 µM) | 12.5 (≈ 13.1 µM) | –
NCCC[C@H](N)CC(=O)NC1CNC(=O)[C@@H](C2CC(N[C@H](CS)C(=O)O)N=C(N)N2)NC(=O)/C(=C/NC(=O)Nc2ccc(Cl)c(Cl)c2)NC(=O)[C@@H](CO)NC(=O)[C@@H](CO)NC1=O (some centres undefined) | 25 (≈ 26.8 µM) | 3.12 (≈ 3.34 µM) | –
NCCC[C@H](N)CC(=O)NC1CNC(=O)[C@@H](C2CC(NC(=O)Nc3ccc(Cl)c(Cl)c3)N=C(N)N2)NC(=O)/C(=C/NC(N)=O)NC(=O)[C@@H](CO)NC(=O)[C@@H](CO)NC1=O (some centres undefined) | 6.25 (≈ 7.16 µM) | 1.56 (≈ 1.79 µM) | 25 (≈ 28.6 µM)
NCCC[C@H](N)CC(=O)NC1CNC(=O)[C@@H](C2CC(NC(=O)NCc3ccc(Cl)c(Cl)c3)N=C(N)N2)NC(=O)/C(=C/NC(N)=O)NC(=O)[C@@H](CO)NC(=O)[C@@H](CO)NC1=O (some centres undefined) | 12.5 (≈ 14.1 µM) | 3.13 (≈ 3.53 µM) | –
NCCC[C@H](N)CC(=O)NC1CNC(=O)[C@@H](C2CC(NC(=O)OCc3ccc(Cl)c(Cl)c3)N=C(N)N2)NC(=O)/C(=C/NC(N)=O)NC(=O)[C@@H](CO)NC(=O)[C@@H](CO)NC1=O (some centres undefined) | 25 (≈ 28.2 µM) | 6.25 (≈ 7.04 µM) | 3.12 (≈ 3.51 µM)
NCCC[C@H](N)CC(=O)NC1CNC(=O)[C@@H](C2CC(NC(=O)NCc3ccc(C4CCCCC4)cc3)N=C(N)N2)NC(=O)/C(=C/NC(N)=O)NC(=O)[C@@H](CO)NC(=O)[C@@H](CO)NC1=O (some centres undefined) | – | – | 25 (≈ 27.8 µM)
NCCC[C@H](N)CC(=O)NC1CNC(=O)[C@@H](C2CC(SCCN)NC(N)=N2)NC(=O)/C(=C/NC(=O)Nc2ccc(Cl)c(Cl)c2)NC(=O)[C@@H](CO)NC(=O)[C@@H](CO)NC1=O (some centres undefined) | 25 (≈ 28.1 µM) | 3.12 (≈ 3.51 µM) | –
CSC[C@@H](NC1CC([C@H]2NC(=O)/C(=C/NC(=O)Nc3ccc(Cl)c(Cl)c3)NC(=O)[C@@H](CO)NC(=O)[C@@H](CO)NC(=O)C(NC(=O)C[C@@H](N)CCCN)CNC2=O)N=C(N)N1)C(=O)O (some centres undefined) | 25 (≈ 26.4 µM) | 3.12 (≈ 3.29 µM) | –
NCCC[C@H](N)CC(=O)NC1CNC(=O)[C@@H](C2CC(NC(=O)OCc3cccc(Cl)c3Cl)N=C(N)N2)NC(=O)/C(=C/NC(N)=O)NC(=O)[C@@H](CO)NC(=O)[C@@H](CO)NC1=O (some centres undefined) | 25 (≈ 28.2 µM) | 3.13 (≈ 3.53 µM) | 12.5 (≈ 14.1 µM)
CN[C@H](CC(C)C)C(=O)N[C@H]1C(=O)N[C@@H](CC(N)=O)C(=O)N[C@H]2C(=O)N[C@H]3C(=O)N[C@H](C(=O)N[C@H](C(=O)O)c4cc(O)cc(O)c4-c4cc3ccc4O)[C@H](O)c3ccc(c(Cl)c3)Oc3cc2cc(c3O[C@@H]2O[C@H](CO)[C@@H](O)[C@H](O)[C@H]2O[C@H]2C[C@](C)(N)[C@H](O)[C@H](C)O2)Oc2ccc(cc2Cl)[C@H]1O [VANCOMYCIN] | – | – | 0.78 (≈ 0.538 µM)
